Results on two molecules are retold here after publication PMC12656329, “Specific Hepatorenal Toxicity and Cross-Species Susceptibility of Eight Representative Pesticides” (Toxics, 2025).

What is called IC50 is the midpoint of a concentration-inhibition curve.

The structures appear in SMILES notation. Entries after “also recorded” stand apart in the source; their conditions may differ. Read-outs that look alike come from different tables or passages of the source.

For data set [1], the system named is CCC-HEL-1 hepatocytes. The conditions noted are these: CCC-HEL-1 cells, 24 h exposure at median lethal concentration, vs control.
Data set [2] has as its system 293T renal cells. Kind of data set: ELISA of toxicity biomarkers (LDH, KIM-1) in culture supernatant, 293T. It is filed as cell-based, human. The conditions noted are these: 293T cells, 24 h exposure at median lethal concentration, vs control. The protocol: The levels of hepatotoxicity biomarkers (ALT, AST, ALP) and nephrotoxicity biomarkers (KIM-1, LDH) in cell culture supernatant were quantified using commercially available ELISA kits (Cloud-Clone Corp., Wuhan, China). 100 μL of the supernatant was added to the pre-coated wells and incubated according to the manufacturer’s protocol (five replicates). After washing, the appropriate detection antibody and substrate were added, and the absorbance was measured at 450 nm using microplate reader. The concentrations of the biomarkers were determined based on standard curves.
Background: In an ELISA, binding on a coated surface is turned into a signal by an enzyme label.

For data set [3], the system named is 293T renal cells. Kind of data set: CCK-8 cytotoxicity assay, 293T. In kind it is cell-based, human. The conditions noted are these: Homo sapiens, HEK-293T, 24 h, CCK-8, 24 h exposure. Here is the method:
(§1) Human embryonic kidney 293T (HEK293T) cells and rat renal NRK cells were maintained in high-glucose DMEM supplemented with 10% fetal bovine serum (FBS) and 1% penicillin–streptomycin at 37 °C under 5% CO2 until reaching 70–80%. Human liver CCC-HEL-1 cells were cultured under identical conditions but with 20% FBS, while rat normal hepatocytes were grown in high-glucose MEM containing 20% FBS and 1% penicillin–streptomycin. Stock solutions (500 g/L) of eight pesticide standards were prepared in dimethyl sulfoxide (DMSO) and stored at −20 °C. Working concentrations were freshly diluted in serum-containing culture medium prior to each experiment.
(§2) The cytotoxicity of eight pesticides on four mammalian cell lines was assessed using the Cell Counting Kit-8 (CCK-8) assay. Initially, stock solutions of each pesticide were prepared by dissolving the compound in dimethyl sulfoxide (DMSO) to a final concentration of 500 g/L. For the assay, cells were seeded into 96-well plates at a density of 2 × 10^4 cells per well in 100 µL of medium and incubated for 24 h at 37 °C under a 5% CO2 atmosphere to allow for attachment. Subsequently, the culture medium was replaced with fresh medium containing the pesticides at a series of final concentrations (0, 10, 100, 200, 400, 800, 1000, and 2500 mg/L). Pesticide working concentrations were prepared through serial dilution of the 500 g/L DMSO stock solution, resulting in variable final DMSO concentrations across treatment groups (ranging from 0.002% to 0.5% v/v). A media-only blank (no cells) was included for background absorbance correction, and a solvent control (0.1% DMSO, no pesticide) was used to account for any vehicle effects. All conditions were performed in five replicates. […] At DMSO concentrations ranging from 0.1% to 0.2%, the viability of all four cell lines remained stable above 80%. At a 1% DMSO concentration, the viability of all four cell types was around 50% or higher (Supplementary Figure S5). Following 24 h of exposure, 10 µL of CCK-8 reagent was added to each well. Absorbance Measurement: After an additional 1 h of incubation in the dark, the optical density (OD) at 450 nm was recorded using a microplate reader. Cell viability was calculated by comparing the OD values of treated groups with those of the blank control. Although some test concentrations exceeded the water solubility of the pesticides, the combination of DMSO and serum in the culture medium maintained a uniform exposure system. No precipitation was observed during the experiment, ensuring that the measured effects are attributed to the bioavailable fraction of the compound. […]
(§3) 1. Pesticide Exposure: After removing the medium, fresh medium containing gradient concentrations (0–2500 mg/L) of each pesticide was added (five replicates per concentration).
(§4) Following 24 h of exposure, 10 µL of CCK-8 reagent was added to each well.
(§5) 2. Absorbance Measurement: After 1 h of dark incubation, the OD at 450 nm was measured using a microplate reader.
(§6) 3. Cell Viability Calculation: Viability was determined by comparing the OD values of treated groups to the blank control. […]
(Tetrazolium dyes change colour on reduction, which living cells bring about.)

The test system of data set [4] is MRP2 in 293T renal cells. Briefly: MRP2 immunofluorescence staining, 293T. It is filed as cell-based, human. As to conditions: 293T cells, 24 h at IC50, immunofluorescence, vs untreated controls. The protocol: (§7) Cells were seeded at a density of 1 × 10^5 cells per well in immunofluorescence-specific glass-bottom dishes and allowed to adhere for 24 h. […] Following treatment, cells were fixed with 4% paraformaldehyde for 15 min at room temperature and permeabilized with 0.1% Triton X-100 for 10 min. Non-specific binding was blocked with 5% bovine serum albumin (BSA) for 1 h at room temperature. Cells were then incubated with primary antibody against MRP2 (1:300 dilution) overnight at 4 °C. After three washes with PBS, cells were treated with secondary antibody (rabbit anti-IgG, 1:600 dilution) for 1 h at room temperature and washed three times with PBS. Anti-MRP2 antibody (Abcam, ab172630) and Alexa Fluor® 488-conjugated anti-rabbit IgG secondary antibody (Cell Signaling Technology, Danvers, MA, USA, 4412) were used for immunofluorescence staining. Nuclei were counterstained with DAPI Staining Solution (C1005, 10 mL) (Beyotime Biotechnology, Shanghai, China). Fluorescent images were captured using a 10× inverted fluorescence microscope. Quantitative analysis of fluorescence intensity was performed using ImageJ software 2.1.0 (National Institutes of Health, Bethesda, MD, USA).

For data set [5] the following is noted: parent compound; ref [1] (Ding et al. 2023, ref 74); cited from earlier work.
Data set [6] deals with IAR hepatocytes. Briefly: CCK-8 cytotoxicity assay, IAR. It is filed as cell-based. The conditions noted are these: Rattus norvegicus, Hepatocyte; CCK-8, 24 h exposure. The protocol:
as §1, §2, §3, §4, §5, §6

The subject of data set [7] is four mammalian cell lines (CCC-HEL-1, 293T, IAR, NRK). Briefly: CCK-8 cytotoxicity, statements across the four cell lines. It is filed as cell-based, human and rat. As to conditions: CCK-8 / heatmap of OD values, cell lines as stated in the sentence. Here is the method: The cytotoxicity of eight pesticides on four mammalian cell lines was assessed using the Cell Counting Kit-8 (CCK-8) assay. Initially, stock solutions of each pesticide were prepared by dissolving the compound in dimethyl sulfoxide (DMSO) to a final concentration of 500 g/L. For the assay, cells were seeded into 96-well plates at a density of 2 × 10^4 cells per well in 100 µL of medium and incubated for 24 h at 37 °C under a 5% CO2 atmosphere to allow for attachment. Subsequently, the culture medium was replaced with fresh medium containing the pesticides at a series of final concentrations (0, 10, 100, 200, 400, 800, 1000, and 2500 mg/L). Pesticide working concentrations were prepared through serial dilution of the 500 g/L DMSO stock solution, resulting in variable final DMSO concentrations across treatment groups (ranging from 0.002% to 0.5% v/v). A media-only blank (no cells) was included for background absorbance correction, and a solvent control (0.1% DMSO, no pesticide) was used to account for any vehicle effects. All conditions were performed in five replicates. […] At DMSO concentrations ranging from 0.1% to 0.2%, the viability of all four cell lines remained stable above 80%. At a 1% DMSO concentration, the viability of all four cell types was around 50% or higher (Supplementary Figure S5). Following 24 h of exposure, 10 µL of CCK-8 reagent was added to each well. Absorbance Measurement: After an additional 1 h of incubation in the dark, the optical density (OD) at 450 nm was recorded using a microplate reader. Cell viability was calculated by comparing the OD values of treated groups with those of the blank control. Although some test concentrations exceeded the water solubility of the pesticides, the combination of DMSO and serum in the culture medium maintained a uniform exposure system. No precipitation was observed during the experiment, ensuring that the measured effects are attributed to the bioavailable fraction of the compound.

For data set [8] the following is noted: ref PPDB: Pesticide Properties DataBase, cited from earlier work.
Data set [9] relates to NRK renal cells. Kind of data set: CCK-8 cytotoxicity assay, NRK. It is filed as cell-based. The conditions noted are these: Rattus norvegicus; CCK-8, 24 h exposure. Here is the method: as §1, §2, §3, §4, §5, §6
Data set [10] deals with Rat. As to conditions: rat, in vivo, po; cited from earlier work.
For data set [11], the system named is CCC-HEL-1 hepatocytes. Briefly: CCK-8 cytotoxicity assay, CCC-HEL-1. As to conditions: Homo sapiens, Hepatocyte; CCK-8, 24 h exposure. In kind it is cell-based. The protocol:
as §1, §2, §3, §4, §5, §6

Data set [12] has as its system Colinus virginianus. As to conditions: in vivo; cited from earlier work.
Data set [13] concerns MRP2 in CCC-HEL-1 hepatic cells. Kind of data set: MRP2 immunofluorescence staining, CCC-HEL-1. In kind it is cell-based, human. As to conditions: CCC-HEL-1 cells, 24 h at IC50, immunofluorescence. Here is the method: as §7

`CCCCC(C#N)(Cn1cncn1)c1ccc(Cl)cc1` (centres unmarked) [Myclobutanil, myclobutanil]: the LDH level entry in data set [1] is listed as “LDH elevation”. The LDH release result in data set [2] is given as “significantly elevated LDH release”. The IC50 in data set [3] is 458 mg/L; in data set [6] it was 567 mg/L; in [9], 588 mg/L; in data set [11], 455 mg/L. In [4], the MRP2 protein level result is listed as “most pronounced effect”. Also, the “Toxicokinetic Parameter (Concentration), mean” value in data set [5] is 38.3 ng/g creatinine. For the same molecule, the “cytotoxicity (in words)” value in [7] is on record as “strong cytotoxic effects”. In data set [8] (Rat SF=100), the “ADI - Acceptable Daily Intake” value is listed as 0.025 mg kg⁻¹ bw day⁻¹. Besides, the “Mammals - Acute oral LD50” value in [10] was 1600 mg/kg. Besides, the “Birds - Acute LD50” value in [12] is 510 mg/kg.

With `CCCC1COC(Cn2cncn2)(c2ccc(Cl)cc2Cl)O1` (centres unmarked) [Propiconazole, propiconazole], in [2], the LDH release entry is recorded as “significantly increased; also recorded: significantly elevated LDH release”. Besides, the IC50 in data set [3] came to 27.2 mg/L; in [6], 189 mg/L; in [9], 203 mg/L; in data set [11], 72.6 mg/L. The “ADI - Acceptable Daily Intake” value in data set [8] (basis species not given) is on record as 0.04 mg kg⁻¹ bw day⁻¹. Moreover, in data set [10], the “Mammals - Acute oral LD50” value was 550 mg/kg. Further, in [13], the “MRP2 upregulation relative to controls” value was determined as 1.5 fold.
